Test results taken from US5563155A, “Individual stereosiomers of 7-[3-(aminoalkyl)-1-pyrrolidinyl]-quinolones and naphthyridones as antibacterial agents” (Warner-Lambert Company, priority 1995, dated 1996).
Converted amounts (≈) assume the structure as drawn. Read-outs that look alike come from different tables or passages of the source.

Columns and labels:
Ent. cloacae MA2646 = test: in vitro antibacterial activity, microtitration dilution (MIC), Ent. cloacae MA2646; type: cell-based; conditions: Enterobacter cloacae, read-out: minimum inhibiting concentration (MIC)
Outline: (§1)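 MICs (μg/mL) determined by microtitration broth dilution following the Heifetz et al. method.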

Esch. coli Vogel [1] = test: in vitro antibacterial activity, microtitration dilution (MIC), Esch. coli Vogel; type: cell-based; conditions: Escherichia coli, read-out: minimum inhibiting concentration (MIC)
Outline: as §1

Klebs. pneumoniae MGH-2 = test: in vitro antibacterial activity, microtitration dilution (MIC), Klebs. pneumoniae MGH-2; type: cell-based; conditions: Klebsiella pneumoniae, MGH2, read-out: minimum inhibiting concentration (MIC)
Outline: as §1

Prot. rettgeri M 1771 = test: in vitro antibacterial activity, microtitration dilution (MIC), Prot. rettgeri M 1771; type: cell-based; conditions: Providencia rettgeri, M1771, read-out: minimum inhibiting concentration (MIC)
Outline: as §1

Pseud. aeruginosa UI-18 [2] = test: in vitro antibacterial activity, microtitration dilution (MIC), Pseud. aeruginosa UI-18; type: cell-based; conditions: Pseudomonas aeruginosa, UI18, read-out: minimum inhibiting concentration (MIC)
Outline: as §1

Staph. aureus H 228 = test: in vitro antibacterial activity, microtitration dilution (MIC), Staph. aureus H 228; type: cell-based; conditions: Staphylococcus aureus, H228, read-out: minimum inhibiting concentration (MIC)
Outline: as §1

Staph. aureus UC-76 = test: in vitro antibacterial activity, microtitration dilution (MIC), Staph. aureus UC-76; type: cell-based; conditions: Staphylococcus aureus, UC76, read-out: minimum inhibiting concentration (MIC)
Outline: as §1

Strep. faecalis MGH-2 = test: in vitro antibacterial activity, microtitration dilution (MIC), Strep. faecalis MGH-2; type: cell-based; conditions: Enterococcus faecalis, MGH2, read-out: minimum inhibiting concentration (MIC)
Outline: as §1

Strep. pheumoniae SV-1 [3] = test: in vitro antibacterial activity, microtitration dilution (MIC), Strep. pneumoniae SV-1; type: cell-based; conditions: Streptococcus pneumoniae, SV1, read-out: minimum inhibiting concentration (MIC)
Outline: as §1

Strep. pyogenes C-203 [4] = test: in vitro antibacterial activity, microtitration dilution (MIC), Strep. pyogenes C-203; type: cell-based; conditions: Streptococcus pyogenes, C203, read-out: minimum inhibiting concentration (MIC)
Outline: as §1

Esch. coli Vogel [5] = test: median protective dose in mice given lethal systemic infections, Esch. coli Vogel; type: in vivo; conditions: Escherichia coli, single dose at time of challenge, read-out: median protective dose (PD50)
Protocol: (§2) The in vivo activity is obtained when the compounds are tested according to the procedure of Miller, et al (Proc. Soc. Exp. Biol. Med. 57, 261, 1944). The median protective dose (PD50) was determined in mice given lethal systemic infections. Single doses of compound were given at time of challenge.
(§3) By use of the above methods, the following minimum inhibiting concentration values (MICs in μg/mL), PD50 's in mg/kg, no effect phototoxicity dose in mg/kg and the cytotoxicity IC50 in μg/mL were obtained for representative enantiomers of the invention and compounds of the prior art as shown in the table.
(§4) The in vivo data as PD50 s are reported below the line of MICs for the same compound.

Pseud. aeruginosa UI-18 [6] = test: median protective dose in mice given lethal systemic infections, Pseud. aeruginosa UI-18; type: in vivo; conditions: Pseudomonas aeruginosa, single dose at time of challenge, read-out: median protective dose (PD50)
Protocol: as §2, §3, §4

Strep. pheumoniae SV-1 [7] = test: median protective dose in mice given lethal systemic infections, Strep. pneumoniae SV-1; type: in vivo; conditions: Streptococcus pneumoniae, single dose at time of challenge, read-out: median protective dose (PD50)
Protocol: as §2, §3, §4

in vivo = test: in vivo; design: species or system mice; conditions: mouse, po
Protocol: The phototoxicity data is obtained using depilated mice. The compound was administered orally each day for four successive days, followed each day by 3 hours of UVA radiation. The mice were examined for any positive signs (redness, erythema) relative to control animals. The no effect dose and the 50% effect dose were determined. By use of the above methods, the following minimum inhibiting concentration values (MICs in μg/mL), PD50 's in mg/kg, no effect phototoxicity dose in mg/kg and the cytotoxicity IC50 in μg/mL were obtained for representative enantiomers of the invention and compounds of the prior art as shown in the table.

[8] = cytotoxicity, hamster V-79 cells, colony reduction; type: cell-based; conditions: 3 hours treatment, colonies counted after 5 days, read-out: Cytotox (cytotoxicity IC50)
Protocol: The cytotoxicity data is obtained using hamster V-79 cells. The cells were suspended in tissue culture medium and grown overnight. Cells were treated with drug for 3 hours, washed free of drug and then replated, and the colonies counted after 5 days. The concentration of drug that reduced colones by 50% relative to control was recorded.
as §3

Strep. pyogenes C-203 [9] = test: median protective dose in mice given lethal systemic infections, Strep. pyogenes C-203; type: in vivo; conditions: Streptococcus pyogenes, single dose at time of challenge, read-out: median protective dose (PD50)
Protocol: as §2, §3, §4

| Compound | MIC (Ent. cloacae MA2646) [mg/L] | MIC (Esch. coli Vogel [1]) [mg/L] | MIC (Klebs. pneumoniae MGH-2) [mg/L] | MIC (Prot. rettgeri M 1771) [mg/L] | MIC (Pseud. aeruginosa UI-18 [2]) [mg/L] | MIC (Staph. aureus H 228) [mg/L] | MIC (Staph. aureus UC-76) [mg/L] | MIC (Strep. faecalis MGH-2) [mg/L] | MIC (Strep. pheumoniae SV-1 [3]) [mg/L] | MIC (Strep. pyogenes C-203 [4]) [mg/L] | ED50 (Esch. coli Vogel [5]; PO) [mg/kg] | ED50 (Esch. coli Vogel [5]; SC) [mg/kg] | ED50 (Pseud. aeruginosa UI-18 [6]; UI18, PO) [mg/kg] | ED50 (Pseud. aeruginosa UI-18 [6]; UI18, SC) [mg/kg] | ED50 (Strep. pheumoniae SV-1 [7]; SV1, PO) [mg/kg] | ED50 (Strep. pheumoniae SV-1 [7]; SV1, SC) [mg/kg] | NOAEL at 96 h (in vivo) [mg/kg] | CC50 at 3 h [8] [mg/L] | ED50 (Strep. pyogenes C-203 [9]; C203, PO) [mg/kg] | ED50 (Strep. pyogenes C-203 [9]; C203, SC) [mg/kg] |
| --- | --- | --- | --- | --- | --- | --- | --- | --- | --- | --- | --- | --- | --- | --- | --- | --- | --- | --- | --- | --- |
| C[C@@H](N)[C@H]1CCN(c2nc3c(cc2F)c(=O)c(C(=O)O)cn3C2CC2)C1 [Example 5, 3S,1R-1-cyclopropyl-6-fluoro-7-[3-(1-aminoethyl)-1-pyrrolidinyl]-1,4-dihydro-4-oxo-1,8-naphthyridine-3-carboxylic acid] | 0.05 (≈ 0.139 µM) | 0.05 (≈ 0.139 µM) | 0.1 (≈ 0.277 µM) | 0.2 (≈ 0.555 µM) | 0.8 (≈ 2.22 µM) | 0.2 (≈ 0.555 µM) | 0.025 (≈ 0.0694 µM) | 0.1 (≈ 0.277 µM) | 0.05 (≈ 0.139 µM) | 0.05 (≈ 0.139 µM) | 4 | 1 | 23 | 16 | 15 | 7 | > 100 | 84 (≈ 233 µM) |  |  |
| C[C@H](N)[C@H]1CCN(c2nc3c(cc2F)c(=O)c(C(=O)O)cn3C2CC2)C1 [Example 6, 3S,1S-1-cyclopropyl-6-fluoro-7-[3-(1-aminoethyl)-1-pyrrolidinyl]-1,4-dihydro-4-oxo-1,8-naphthyridine-3-carboxylic acid] | 0.05 (≈ 0.139 µM) | 0.05 (≈ 0.139 µM) | 0.2 (≈ 0.555 µM) | 0.4 (≈ 1.11 µM) | 1.6 (≈ 4.44 µM) | 0.2 (≈ 0.555 µM) | 0.025 (≈ 0.0694 µM) | 0.1 (≈ 0.277 µM) | 0.05 (≈ 0.139 µM) | 0.05 (≈ 0.139 µM) | 8 | 1 | 96 | 25 | 28 | 10 | > 100 | 77 (≈ 214 µM) |  |  |
| C[C@H](N)[C@@H]1CCN(c2nc3c(cc2F)c(=O)c(C(=O)O)cn3C2CC2)C1 [Example 7, 3R,1S-1-cyclopropyl-6-fluoro-7-[3-(1-aminoethyl)-1-pyrrolidinyl]-1,4-dihydro-4-oxo-1,8-naphthyridine-3-carboxylic acid] | 0.025 (≈ 0.0694 µM) | 0.025 (≈ 0.0694 µM) | 0.05 (≈ 0.139 µM) | 0.1 (≈ 0.277 µM) | 0.4 (≈ 1.11 µM) | 0.025 (≈ 0.0694 µM) |  | 0.025 (≈ 0.0694 µM) | 0.006 (≈ 0.0166 µM) | 0.013 (≈ 0.0361 µM) | 2 | 0.4 | 15 | 4 | 3 | 1 | 30 | 33 (≈ 91.6 µM) | 3 | 1 |
| C[C@@H](N)[C@@H]1CCN(c2nc3c(cc2F)c(=O)c(C(=O)O)cn3C2CC2)C1 [Example 8] | 0.05 (≈ 0.139 µM) | 0.05 (≈ 0.139 µM) | 0.1 (≈ 0.277 µM) | 0.4 (≈ 1.11 µM) | 0.8 (≈ 2.22 µM) | 0.05 (≈ 0.139 µM) | 0.06 (≈ 0.166 µM) | 0.05 (≈ 0.139 µM) | 0.006 (≈ 0.0166 µM) | 0.013 (≈ 0.0361 µM) | 6 | 1 | 35 | 12 | 14 | 2 | 55 | 100 (≈ 277 µM) |  |  |
| CN[C@H](C)[C@@H]1CCN(c2c(F)c(N)c3c(=O)c(C(=O)O)cn(C4CC4)c3c2F)C1 [Example 41, 3R,1R-5-amino-1-cyclopropyl-6,8-difluoro-7-[3-(1-N-methylaminoethyl)-1-pyrrolidinyl]-1,4-dihydro-4-oxo-3-quinoline carboxylic acid] | 0.05 (≈ 0.123 µM) | 0.05 (≈ 0.123 µM) | 0.1 (≈ 0.246 µM) | 0.2 (≈ 0.492 µM) | 0.8 (≈ 1.97 µM) | 0.006 (≈ 0.0148 µM) | 0.003 (≈ 0.00738 µM) | 0.013 (≈ 0.032 µM) | 0.006 (≈ 0.0148 µM) | 0.006 (≈ 0.0148 µM) | 3 | 2 |  |  |  |  | 30 | 33 (≈ 81.2 µM) | 2 | 0.7 |
| CN[C@@H](C)[C@@H]1CCN(c2c(F)c(N)c3c(=O)c(C(=O)O)cn(C4CC4)c3c2F)C1 [Example 42, 3R,1S-5-amino-1-cyclopropyl-6,8-difluoro-7-[3-(1-N-methylaminoethyl)-1-pyrrolidinyl]-1,4-dihydro-4-oxo-3-quinoline carboxylic acid] | 0.025 (≈ 0.0615 µM) | 0.025 (≈ 0.0615 µM) | 0.05 (≈ 0.123 µM) | 0.1 (≈ 0.246 µM) | 0.8 (≈ 1.97 µM) | 0.006 (≈ 0.0148 µM) | 0.003 (≈ 0.00738 µM) | 0.013 (≈ 0.032 µM) | 0.006 (≈ 0.0148 µM) | 0.006 (≈ 0.0148 µM) | 3 | 0.4 |  |  |  |  | < 30 | 17 (≈ 41.8 µM) | 0.55 | 0.25 |
| C[C@H](N)[C@@H]1CCN(c2nc3c(cc2F)c(=O)c(C(=O)O)cn3-c2ccc(F)cc2F)C1 [Example 43, 3R,1S-7-[3(1-aminoethyl)-1-pyrrolidinyl]-1-(2,4-difluorophenyl)-6-fluoro-1,4-dihydro-4-oxo-1,8-naphthyridine-3-carboxylic acid] | 0.2 (≈ 0.463 µM) | 0.1 (≈ 0.231 µM) | 0.2 (≈ 0.463 µM) | 0.4 (≈ 0.925 µM) | 0.8 (≈ 1.85 µM) | 0.05 (≈ 0.116 µM) | 0.006 (≈ 0.0139 µM) | 0.025 (≈ 0.0578 µM) | 0.006 (≈ 0.0139 µM) | 0.006 (≈ 0.0139 µM) | 3.5 | 1 |  |  | 3 | 3 | > 100 | 280 (≈ 648 µM) | 1 | 1 |
| C[C@H]([C@@H]1CCN(c2nc3c(cc2F)c(=O)c(C(=O)O)cn3C2CC2)C1)N(C)C [Example 72, 3R,1R-1-cyclopropyl-7-[3-[1-(dimethylamino)ethyl]-1-pyrrolidinyl]-6-fluoro-1,4,-dihydro-4-oxo-1,8-naphthyridine-3-carboxylic acid] | 0.2 (≈ 0.515 µM) | 0.1 (≈ 0.257 µM) | 0.2 (≈ 0.515 µM) | 0.8 (≈ 2.06 µM) | 1.6 (≈ 4.12 µM) | 0.025 (≈ 0.0644 µM) | 0.025 (≈ 0.0644 µM) | 0.1 (≈ 0.257 µM) | 0.025 (≈ 0.0644 µM) | 0.05 (≈ 0.129 µM) | 1 | 1 | 17 | 11 | 2 | 2 | < 30 | 120 (≈ 309 µM) | 2 | 2 |
